Test results published in ChEMBL document CHEMBL1201862, “PubChem BioAssay data set” (2004).
The source made the active and inactive calls.

How the values were obtained:
[1] = target: Scavenger receptor class B member 1 (Mus musculus, UniProt Q61009); experiment: inhibitors of SR-BI mediated HDL lipid uptake, dose response, ldlA[mSR-BI] cells, fluorescence, cherry pick (AID 493194); assay type: functional, cell-based;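 also: cellular uptake of fluorescent DiI-labeled HDL measured as cell fluorescence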
Cytochrome P450 2C19 = Cytochrome P450 2C19 (Homo sapiens, UniProt P33261); experiment: qHTS Assay for Inhibitors and Substrates of Cytochrome P450 2C19. [Related pubchem assays: 410 ]; assay type: ADME; conditions: read-out: Potency
Cytochrome P450 2D6 = Cytochrome P450 2D6 (Homo sapiens, UniProt P10635); experiment: qHTS Assay for Inhibitors and Substrates of Cytochrome P450 2D6. [Related pubchem assays: 410 ]; assay type: ADME; conditions: read-out: Potency
Cytochrome P450 3A4 = Cytochrome P450 3A4 (Homo sapiens, UniProt P08684); conditions: Potency;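 also: confirmatory qHTS run detecting inhibitors and substrates of CYP3A4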
Cytochrome P450 2C9 = Cytochrome P450 2C9 (Homo sapiens, UniProt P11712); conditions: Potency
Hexokinase HKDC1 = target: T1, Hexokinase HKDC1 (Homo sapiens, UniProt Q2TB90); experiment: HKDC1 hexokinase inhibitors, dose response, biochemical, W721R variant (AID 504729); assay type: functional
T1 sequence (Q2TB90 whole entry): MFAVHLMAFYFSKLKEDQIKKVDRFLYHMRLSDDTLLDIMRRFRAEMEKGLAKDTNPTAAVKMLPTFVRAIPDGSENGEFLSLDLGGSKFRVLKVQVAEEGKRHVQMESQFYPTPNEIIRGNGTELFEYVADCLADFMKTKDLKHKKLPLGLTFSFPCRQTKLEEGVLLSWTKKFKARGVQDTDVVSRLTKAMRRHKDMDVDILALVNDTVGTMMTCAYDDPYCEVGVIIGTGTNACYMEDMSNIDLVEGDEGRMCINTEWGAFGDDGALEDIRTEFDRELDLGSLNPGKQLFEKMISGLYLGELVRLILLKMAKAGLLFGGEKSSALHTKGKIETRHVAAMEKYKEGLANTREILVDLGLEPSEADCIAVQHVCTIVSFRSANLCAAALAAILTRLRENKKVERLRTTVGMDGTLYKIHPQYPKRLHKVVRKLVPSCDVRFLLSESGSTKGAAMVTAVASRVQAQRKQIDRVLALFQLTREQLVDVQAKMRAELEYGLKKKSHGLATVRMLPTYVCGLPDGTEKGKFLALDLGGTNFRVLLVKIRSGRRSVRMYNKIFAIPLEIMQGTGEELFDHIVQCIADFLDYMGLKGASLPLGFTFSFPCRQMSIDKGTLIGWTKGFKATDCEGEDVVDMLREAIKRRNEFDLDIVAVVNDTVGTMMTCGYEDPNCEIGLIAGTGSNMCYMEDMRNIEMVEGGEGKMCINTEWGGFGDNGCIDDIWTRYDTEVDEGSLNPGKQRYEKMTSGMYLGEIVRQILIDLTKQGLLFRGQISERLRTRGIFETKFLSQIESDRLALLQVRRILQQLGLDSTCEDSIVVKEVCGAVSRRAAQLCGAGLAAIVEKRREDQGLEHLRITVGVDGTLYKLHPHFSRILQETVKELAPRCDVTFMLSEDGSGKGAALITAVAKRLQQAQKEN

[2] = inhibitors of firefly luciferase expression or activity, dose response, H4 neuroglioma cells, luminescence (AID 1990); assay type: functional, cell-based
[3] = Luminescence Cell-Based Dose Response HTS to Identify Inhibitors of 5'UTR Stem-Loop Driven Prion Protein mRNA Translation in H4 Neuroglioblastoma Cells. [Related pubchem assays: 1827 (Project Summary), 1813 (Primary HTS)]; assay type: functional
[4] = inhibitors of SNCA 5'UTR-driven reporter translation, confirmation, H4 neuroglioma cells, luminescence (AID 1988); assay type: functional, cell-based
INS1 = experiment: beta cell apoptosis inhibitors, cytokine rescue, dose response, luminescence, retest (AID 449756); assay type: functional, cell-based; conditions: Rattus norvegicus;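 also: cell death triggered by IL-1 beta plus TNF-alpha plus IFN-gamma mixture; protective hits raise ATP signal compared with cytokine alone wells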
[5] = system: Streptococcus sp. 'group A'; experiment: growth inhibition of control SK(-) GAS strain, dose response, counter-screen for streptokinase expression inhibitor project, luminescence, kanamycin, BacTiterGlo, confirmation (AID 1900); assay type: functional, organism-based
[6] = target: Serine/threonine-protein phosphatase PP1-alpha catalytic subunit (Homo sapiens, UniProt P62136); experiment: PP1 phosphatase inhibitors, dose response, biochemical, fluorescence (AID 2403);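 also: phosphatase turnover of OMFP into fluorescent 3-O-methylfluorescein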
Streptokinase A = target: T2, Streptokinase A (Streptococcus pyogenes serotype M1, UniProt P10520); experiment: S. pyogenes streptokinase expression inhibitors, potency, dose response, plasminogen activation absorbance, OD405 (AID 1914); assay type: functional, Streptococcus pyogenes M1 GAS;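 also: secreted streptokinase activity via plasminogen activation per viability signal from cell pellet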
T2 sequence (P10520 whole entry): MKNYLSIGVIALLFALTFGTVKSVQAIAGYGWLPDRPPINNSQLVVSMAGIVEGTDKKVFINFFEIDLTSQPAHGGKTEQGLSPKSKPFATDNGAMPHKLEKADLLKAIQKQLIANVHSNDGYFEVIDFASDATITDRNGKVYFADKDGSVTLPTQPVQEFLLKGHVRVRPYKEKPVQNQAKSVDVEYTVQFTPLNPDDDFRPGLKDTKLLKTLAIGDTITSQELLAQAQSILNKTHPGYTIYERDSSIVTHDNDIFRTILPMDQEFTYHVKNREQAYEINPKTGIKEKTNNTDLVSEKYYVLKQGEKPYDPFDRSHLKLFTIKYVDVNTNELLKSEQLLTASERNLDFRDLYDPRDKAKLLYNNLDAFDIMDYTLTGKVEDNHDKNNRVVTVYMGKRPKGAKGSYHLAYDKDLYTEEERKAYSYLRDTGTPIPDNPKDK

[7] = target: Serine/threonine-protein phosphatase (Homo sapiens, UniProt Q9BPW0); experiment: Counterscreen for inhibitors of PP1: fluorescence-based biochemical high throughput dose response assay to identify inhibitors of Protein Phosphatase 5 (PP5). [Related pubchem assays: 2034 (Summary (PP5 inhibitors)), 1987 (PP5 inhibitors in singlate), 2235 (PP1 inhibitors in singlate)]
Streptococcus = experiment: Group A Streptococcus viability loss, dose response, counter-screen for streptokinase expression inhibitor project, luminescence, BacTiterGlo (AID 1915); assay type: functional, organism-based;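 also: potency for reduction of bacterial viability or growth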
[8] = THP-1 cell cytotoxicity, dose response, cytotoxicity control for non-replicating M. tuberculosis project (AID 489025); assay type: functional
[9] = Vero E6 cell cytotoxicity, dose response, cytotoxicity control for non-replicating M. tuberculosis project, secondary assay (AID 492998); assay type: functional, VeroE6; conditions: Vero C1008
[10] = target: T3, Microphthalmia-associated transcription factor (Homo sapiens, UniProt O75030); experiment: TRPM1 promoter luciferase signal decrease, dose response, MITF inhibitor project, cell-based, SK-MEL-5, cherry-picked, set 3 (AID 493073); assay type: functional
T3 sequence (O75030 whole entry): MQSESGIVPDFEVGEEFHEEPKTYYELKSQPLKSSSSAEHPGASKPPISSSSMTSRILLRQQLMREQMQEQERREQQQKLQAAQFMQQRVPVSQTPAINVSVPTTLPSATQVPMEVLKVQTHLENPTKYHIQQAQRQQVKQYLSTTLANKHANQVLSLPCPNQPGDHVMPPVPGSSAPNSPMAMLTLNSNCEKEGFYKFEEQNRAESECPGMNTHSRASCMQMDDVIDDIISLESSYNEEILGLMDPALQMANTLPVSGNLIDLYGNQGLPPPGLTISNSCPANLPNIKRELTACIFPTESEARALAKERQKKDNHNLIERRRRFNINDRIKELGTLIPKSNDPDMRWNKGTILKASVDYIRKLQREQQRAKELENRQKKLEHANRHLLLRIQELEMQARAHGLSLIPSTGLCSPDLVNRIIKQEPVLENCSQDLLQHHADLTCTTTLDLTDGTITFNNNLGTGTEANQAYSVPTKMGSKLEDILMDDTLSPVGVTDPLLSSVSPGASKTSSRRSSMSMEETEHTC

cells = assay type: functional
Vero = experiment: cells; assay type: functional; conditions: Chlorocebus sabaeus
HeLa = experiment: HeLa cell cytotoxicity, dose response, cytotoxicity control, 24 h, cherry-picked samples (AID 504726); assay type: functional, cell-based; conditions: Homo sapiens;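 also: potency for cytotoxicity as loss of luminescence signal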
ORF 73 = target: T4, ORF 73 (Human herpesvirus 8, UniProt O40947); experiment: inhibitors of C-LANA binding to LBS DNA, dose response, biochemical, fluorescence polarization, cherry-picked samples (AID 504725); design: species or system Human gammaherpesvirus 8;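 also: fluorescence polarization of a labeled DNA duplex reporting LANA DNA binding; potency is for inhibitors that block LANA binding to the DNA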
T4 sequence (O40947 whole entry): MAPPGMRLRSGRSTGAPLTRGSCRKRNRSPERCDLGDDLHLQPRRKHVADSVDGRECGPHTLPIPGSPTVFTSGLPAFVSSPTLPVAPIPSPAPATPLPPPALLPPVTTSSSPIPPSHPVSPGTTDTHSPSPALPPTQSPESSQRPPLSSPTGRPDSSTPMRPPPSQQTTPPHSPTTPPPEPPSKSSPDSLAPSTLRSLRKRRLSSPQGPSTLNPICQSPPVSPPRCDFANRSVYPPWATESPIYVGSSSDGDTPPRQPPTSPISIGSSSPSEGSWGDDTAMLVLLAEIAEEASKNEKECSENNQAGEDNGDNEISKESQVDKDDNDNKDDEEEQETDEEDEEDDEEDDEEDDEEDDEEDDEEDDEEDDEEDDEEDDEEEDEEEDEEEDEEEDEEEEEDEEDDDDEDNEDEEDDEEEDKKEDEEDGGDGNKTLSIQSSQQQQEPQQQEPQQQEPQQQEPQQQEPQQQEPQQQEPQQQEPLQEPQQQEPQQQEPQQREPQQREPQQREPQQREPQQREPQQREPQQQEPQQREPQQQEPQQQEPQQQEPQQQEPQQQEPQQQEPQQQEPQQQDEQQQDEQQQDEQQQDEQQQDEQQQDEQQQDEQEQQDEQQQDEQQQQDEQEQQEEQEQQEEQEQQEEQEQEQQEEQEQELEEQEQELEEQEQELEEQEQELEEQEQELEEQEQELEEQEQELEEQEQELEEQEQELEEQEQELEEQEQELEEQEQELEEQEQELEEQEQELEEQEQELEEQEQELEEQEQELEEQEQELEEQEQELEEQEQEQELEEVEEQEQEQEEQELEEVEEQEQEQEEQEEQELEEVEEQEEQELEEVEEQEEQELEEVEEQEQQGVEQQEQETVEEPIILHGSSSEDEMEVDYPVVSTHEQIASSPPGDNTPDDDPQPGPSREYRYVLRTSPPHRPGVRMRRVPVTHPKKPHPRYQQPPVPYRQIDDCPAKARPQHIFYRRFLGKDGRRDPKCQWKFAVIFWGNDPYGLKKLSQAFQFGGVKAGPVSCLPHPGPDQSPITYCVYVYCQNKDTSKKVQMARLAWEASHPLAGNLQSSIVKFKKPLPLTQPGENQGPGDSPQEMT

[11] = target: Histone-lysine N-methyltransferase NSD2 (Homo sapiens, UniProt O96028); assay type: biochemical
Chain of Histone-lysine N-methyltransferase NSD2 (O96028 whole entry): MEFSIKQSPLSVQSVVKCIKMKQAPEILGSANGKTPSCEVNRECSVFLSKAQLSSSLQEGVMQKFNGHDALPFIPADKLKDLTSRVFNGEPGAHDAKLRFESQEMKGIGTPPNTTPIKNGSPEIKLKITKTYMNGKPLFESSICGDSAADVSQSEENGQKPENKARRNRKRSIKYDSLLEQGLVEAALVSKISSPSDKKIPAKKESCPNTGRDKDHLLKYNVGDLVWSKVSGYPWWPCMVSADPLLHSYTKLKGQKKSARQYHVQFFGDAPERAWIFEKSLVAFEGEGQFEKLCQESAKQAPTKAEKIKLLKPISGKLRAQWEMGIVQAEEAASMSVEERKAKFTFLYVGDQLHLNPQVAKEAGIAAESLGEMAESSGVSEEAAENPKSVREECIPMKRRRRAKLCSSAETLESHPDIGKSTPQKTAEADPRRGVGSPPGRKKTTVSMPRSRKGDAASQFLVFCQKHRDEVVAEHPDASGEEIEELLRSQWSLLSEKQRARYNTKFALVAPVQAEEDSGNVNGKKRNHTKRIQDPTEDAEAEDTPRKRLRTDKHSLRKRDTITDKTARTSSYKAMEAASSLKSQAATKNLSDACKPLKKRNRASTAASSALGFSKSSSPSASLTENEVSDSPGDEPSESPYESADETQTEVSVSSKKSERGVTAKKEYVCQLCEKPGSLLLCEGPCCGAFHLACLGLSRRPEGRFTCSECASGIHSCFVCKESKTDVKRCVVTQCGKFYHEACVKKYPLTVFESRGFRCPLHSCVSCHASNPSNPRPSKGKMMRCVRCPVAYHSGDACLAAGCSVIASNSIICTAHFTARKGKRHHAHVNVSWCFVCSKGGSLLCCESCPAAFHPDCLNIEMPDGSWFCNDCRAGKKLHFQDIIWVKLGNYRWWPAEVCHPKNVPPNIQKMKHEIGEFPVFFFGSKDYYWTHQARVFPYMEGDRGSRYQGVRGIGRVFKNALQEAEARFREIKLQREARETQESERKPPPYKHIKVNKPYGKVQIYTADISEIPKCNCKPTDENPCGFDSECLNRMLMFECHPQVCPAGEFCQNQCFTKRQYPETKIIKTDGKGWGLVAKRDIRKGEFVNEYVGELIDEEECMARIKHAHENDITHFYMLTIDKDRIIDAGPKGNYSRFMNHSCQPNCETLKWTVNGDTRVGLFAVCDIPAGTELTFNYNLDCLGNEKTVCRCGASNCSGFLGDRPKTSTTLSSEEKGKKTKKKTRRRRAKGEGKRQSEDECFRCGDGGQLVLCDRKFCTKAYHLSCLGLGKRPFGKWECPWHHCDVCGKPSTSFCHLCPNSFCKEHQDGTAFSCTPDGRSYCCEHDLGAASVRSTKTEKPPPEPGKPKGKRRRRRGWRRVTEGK

Chain of Cytochrome P450 2C19 (P33261 whole entry): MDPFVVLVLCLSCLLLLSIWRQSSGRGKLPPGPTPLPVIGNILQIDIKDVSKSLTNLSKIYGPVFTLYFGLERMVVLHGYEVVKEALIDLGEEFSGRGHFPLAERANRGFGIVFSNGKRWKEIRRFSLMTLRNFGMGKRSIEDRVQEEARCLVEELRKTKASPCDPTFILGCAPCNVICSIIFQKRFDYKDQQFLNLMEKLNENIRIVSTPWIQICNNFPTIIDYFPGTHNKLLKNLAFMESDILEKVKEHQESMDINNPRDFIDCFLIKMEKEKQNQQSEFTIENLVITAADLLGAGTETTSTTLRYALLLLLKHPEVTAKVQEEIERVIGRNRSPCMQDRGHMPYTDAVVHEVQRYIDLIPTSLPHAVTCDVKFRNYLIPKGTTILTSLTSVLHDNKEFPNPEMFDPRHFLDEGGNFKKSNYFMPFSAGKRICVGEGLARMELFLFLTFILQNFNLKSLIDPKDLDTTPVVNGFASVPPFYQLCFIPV
Chain of Cytochrome P450 2D6 (P10635 whole entry): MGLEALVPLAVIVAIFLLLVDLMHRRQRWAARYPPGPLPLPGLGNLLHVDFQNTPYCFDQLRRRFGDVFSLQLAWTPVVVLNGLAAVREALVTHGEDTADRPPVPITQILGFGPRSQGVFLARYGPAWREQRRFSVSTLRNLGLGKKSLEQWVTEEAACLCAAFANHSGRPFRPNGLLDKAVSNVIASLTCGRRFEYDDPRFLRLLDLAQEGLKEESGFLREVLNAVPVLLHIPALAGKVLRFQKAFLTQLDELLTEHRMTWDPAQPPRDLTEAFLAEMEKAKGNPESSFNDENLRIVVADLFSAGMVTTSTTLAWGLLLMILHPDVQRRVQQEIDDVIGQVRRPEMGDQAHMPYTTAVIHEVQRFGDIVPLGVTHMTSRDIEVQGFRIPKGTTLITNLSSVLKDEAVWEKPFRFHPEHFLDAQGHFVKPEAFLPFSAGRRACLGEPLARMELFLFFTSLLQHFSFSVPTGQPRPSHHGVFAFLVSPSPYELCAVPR
Chain of Scavenger receptor class B member 1 (Q61009 whole entry): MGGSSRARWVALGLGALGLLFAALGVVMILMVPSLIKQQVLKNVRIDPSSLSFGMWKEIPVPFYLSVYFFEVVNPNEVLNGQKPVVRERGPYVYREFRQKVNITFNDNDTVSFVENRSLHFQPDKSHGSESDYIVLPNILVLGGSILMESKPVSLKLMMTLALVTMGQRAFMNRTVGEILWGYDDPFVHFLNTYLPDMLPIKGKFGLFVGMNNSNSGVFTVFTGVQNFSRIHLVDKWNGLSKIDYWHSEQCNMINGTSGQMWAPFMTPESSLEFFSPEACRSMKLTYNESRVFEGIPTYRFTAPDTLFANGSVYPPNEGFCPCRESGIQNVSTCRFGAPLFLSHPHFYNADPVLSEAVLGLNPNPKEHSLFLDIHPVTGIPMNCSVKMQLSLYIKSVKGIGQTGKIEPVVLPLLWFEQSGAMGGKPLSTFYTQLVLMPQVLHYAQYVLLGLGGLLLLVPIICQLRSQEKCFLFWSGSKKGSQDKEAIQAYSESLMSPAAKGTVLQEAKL
Chain of Cytochrome P450 2C9 (P11712 whole entry): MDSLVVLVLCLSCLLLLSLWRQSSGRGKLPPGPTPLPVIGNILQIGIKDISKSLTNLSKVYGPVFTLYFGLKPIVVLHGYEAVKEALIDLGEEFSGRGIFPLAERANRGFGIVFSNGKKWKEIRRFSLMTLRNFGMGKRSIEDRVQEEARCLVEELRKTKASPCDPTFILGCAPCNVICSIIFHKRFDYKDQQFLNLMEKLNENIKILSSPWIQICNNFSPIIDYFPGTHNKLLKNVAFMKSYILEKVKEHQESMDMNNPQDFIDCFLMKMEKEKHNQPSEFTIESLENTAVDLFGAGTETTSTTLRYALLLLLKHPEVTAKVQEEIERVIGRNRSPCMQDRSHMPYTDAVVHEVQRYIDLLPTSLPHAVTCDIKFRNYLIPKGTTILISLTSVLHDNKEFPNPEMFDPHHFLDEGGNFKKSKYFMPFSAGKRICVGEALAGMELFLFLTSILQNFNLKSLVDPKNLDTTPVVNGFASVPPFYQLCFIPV
Chain of Serine/threonine-protein phosphatase (Q9BPW0 whole entry): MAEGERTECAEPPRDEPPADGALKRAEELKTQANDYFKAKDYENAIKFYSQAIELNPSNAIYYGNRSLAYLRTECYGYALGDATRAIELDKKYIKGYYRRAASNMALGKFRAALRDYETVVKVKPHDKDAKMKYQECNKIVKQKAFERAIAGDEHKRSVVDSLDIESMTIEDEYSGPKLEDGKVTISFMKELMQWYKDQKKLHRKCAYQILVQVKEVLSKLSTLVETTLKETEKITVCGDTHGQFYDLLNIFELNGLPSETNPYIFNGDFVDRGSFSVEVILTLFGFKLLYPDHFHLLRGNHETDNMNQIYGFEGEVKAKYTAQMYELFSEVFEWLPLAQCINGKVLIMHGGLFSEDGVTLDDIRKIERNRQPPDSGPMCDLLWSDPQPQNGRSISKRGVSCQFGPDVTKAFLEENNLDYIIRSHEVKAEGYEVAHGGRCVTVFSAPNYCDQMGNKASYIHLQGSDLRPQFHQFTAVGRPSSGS
Chain of Cytochrome P450 3A4 (P08684 whole entry): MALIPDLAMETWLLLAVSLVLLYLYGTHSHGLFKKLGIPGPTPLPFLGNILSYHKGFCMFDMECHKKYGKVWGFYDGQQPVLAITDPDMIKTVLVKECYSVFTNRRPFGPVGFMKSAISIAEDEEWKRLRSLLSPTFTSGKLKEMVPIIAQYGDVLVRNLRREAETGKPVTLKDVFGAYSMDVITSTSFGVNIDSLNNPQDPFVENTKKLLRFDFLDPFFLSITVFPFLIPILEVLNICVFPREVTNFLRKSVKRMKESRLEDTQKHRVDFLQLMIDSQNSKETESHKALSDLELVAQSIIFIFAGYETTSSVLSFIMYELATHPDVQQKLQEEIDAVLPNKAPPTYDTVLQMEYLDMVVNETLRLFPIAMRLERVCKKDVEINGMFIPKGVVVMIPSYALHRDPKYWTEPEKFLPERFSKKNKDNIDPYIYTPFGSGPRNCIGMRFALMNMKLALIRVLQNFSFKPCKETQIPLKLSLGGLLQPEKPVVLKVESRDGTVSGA
Chain of Serine/threonine-protein phosphatase PP1-alpha catalytic subunit (P62136 whole entry): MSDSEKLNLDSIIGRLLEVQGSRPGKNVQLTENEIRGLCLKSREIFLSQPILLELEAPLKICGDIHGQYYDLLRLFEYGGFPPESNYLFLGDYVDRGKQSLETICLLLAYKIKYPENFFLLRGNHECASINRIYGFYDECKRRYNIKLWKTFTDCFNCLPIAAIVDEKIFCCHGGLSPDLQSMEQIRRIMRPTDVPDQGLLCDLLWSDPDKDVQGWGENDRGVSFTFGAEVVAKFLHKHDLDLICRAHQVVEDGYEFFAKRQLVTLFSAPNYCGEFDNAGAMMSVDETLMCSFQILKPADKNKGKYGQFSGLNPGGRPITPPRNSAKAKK

## O=C(c1cn(-c2ccccc2)nc1-c1cccc([N+](=O)[O-])c1)N1CCCCC1
[1]
  AC50: 23.6 µM (active)

## COC(=O)NC(/C(C(=O)OC)=C(\C)NCc1ccccc1)c1cccs1 (centres undefined)
Cytochrome P450 2C19
  AC50: 0.0316 µM (inconclusive)
Cytochrome P450 2D6
  AC50: 3.98 µM (inconclusive)
Cytochrome P450 3A4
  AC50: 3.98 µM (inconclusive)
Cytochrome P450 2C9
  AC50: 7.94 µM (inconclusive)

## CCOC(=O)c1ccc(NC(=O)CSc2ccc(-c3ccccn3)nn2)cc1
Hexokinase HKDC1
  IC50: 2.31 µM (active)

## CC(=O)OCC1OC(C#Cc2ccc(C)cc2C)C=CC1OC(C)=O (centres undefined)
Cytochrome P450 2C19
  AC50: 1.58 µM (inconclusive)
Cytochrome P450 2C9
  AC50: 2.51 µM (inconclusive)

## O=C(Nc1cccc(NC(=O)c2cc([N+](=O)[O-])ccc2Cl)n1)c1cc([N+](=O)[O-])ccc1Cl
[2]
  EC50: 15.3 µM (active)
[3]
  EC50: > 60 µM (not active)
[4]
  EC50: 8.35 µM (active)
[1]
  AC50: 20.2 µM (active)
INS1
  AC50: 6.4 µM (active)

## COc1ccc(-c2coc3cc(O)ccc3c2=O)cc1 [FORMONONETIN]
Cytochrome P450 2C19
  AC50: 7.94 µM (inconclusive)
Cytochrome P450 2D6
  AC50: 10 µM (inconclusive)

## COc1ccc(/C=N/Nc2cc(C)nc(-n3nc(C)cc3C)n2)c(OC)c1
[5]
  EC50: 9.67 µM (active)
[6]
  IC50: 6.68 µM (active)
Streptokinase A
  EC50: > 150 µM (not active)
[7]
  IC50: > 67 µM (not active)
Streptococcus
  EC50: 13.8 µM (active)
[8]
  CC50: 5.91 µM (active)
[9]
  CC50: 7.06 µM (active)
[10]
  AC50: 10.4 µM (active)
cells
  IC50: 0.24 µM (active)
INS1
  AC50: 2.67 µM (active)
Vero
  CC50: 19.8 µM (active)

## O=C1CCCC(=O)C1=NNc1ccc(C(=O)O)cc1
HeLa
  AC50: > 350 µM (inactive)
ORF 73
  AC50: 30.2 µM (active)
[11]
  AC50: 10.3 µM (active)
